Assay: LC/MS analysis of PEG-lipid stability in presence of methylene blue
Format: physicochemical
Protocol: This example describes the effects of methylene blue on lipid components of LNP formulations. PEG-lipid is known to be susceptible to oxidative degradation. Given the degradation mechanism attributed to methylene blue, an accelerated study was performed to evaluate whether the presence of methylene blue adversely affects PEG-lipid stability. Lyso-PEG-DMG is considered a primary bellwether of PEG-lipid degradation. As such, its concentration in samples was measured using liquid chromatography/mass spectrometry (LC/MS) after storage of LNPs at room temperature (FIG. 7A) or 5° C. (FIG. 7B) in the presence of a range of methylene blue concentrations.

CN(C)c1ccc2nc3ccc(N(C)C)cc3[s+]c2c1 [methylene blue]
total quantity of PEG-lipid (LC/MS) (0, 0.1, 0.5 and 1 mM methylene blue, 1 week at room temperature or 5° C.): no effect on the total quantity of PEG-lipid present | Lyso-PEG-DMG signal (LC/MS) (0 to 1.0 mM methylene blue, LNPs at room temperature or 5° C., 1 week): no difference in Lyso-PEG-DMG signal was detected
